For one assay, the target named is Procathepsin L (Homo sapiens, UniProt P07711). The assay is described as follows: cathepsin L inhibitors, dose response, counter-screen for M1/M17 aminopeptidase inhibitor project, biochemical, QFRET, 1536-well (AID 2214). (In general: Counterscreens check selectivity or assay interference.)
Another assay addresses T1, Aspartyl aminopeptidase (Plasmodium falciparum 3D7, UniProt Q8I2J3).
T1 sequence (Q8I2J3 whole entry): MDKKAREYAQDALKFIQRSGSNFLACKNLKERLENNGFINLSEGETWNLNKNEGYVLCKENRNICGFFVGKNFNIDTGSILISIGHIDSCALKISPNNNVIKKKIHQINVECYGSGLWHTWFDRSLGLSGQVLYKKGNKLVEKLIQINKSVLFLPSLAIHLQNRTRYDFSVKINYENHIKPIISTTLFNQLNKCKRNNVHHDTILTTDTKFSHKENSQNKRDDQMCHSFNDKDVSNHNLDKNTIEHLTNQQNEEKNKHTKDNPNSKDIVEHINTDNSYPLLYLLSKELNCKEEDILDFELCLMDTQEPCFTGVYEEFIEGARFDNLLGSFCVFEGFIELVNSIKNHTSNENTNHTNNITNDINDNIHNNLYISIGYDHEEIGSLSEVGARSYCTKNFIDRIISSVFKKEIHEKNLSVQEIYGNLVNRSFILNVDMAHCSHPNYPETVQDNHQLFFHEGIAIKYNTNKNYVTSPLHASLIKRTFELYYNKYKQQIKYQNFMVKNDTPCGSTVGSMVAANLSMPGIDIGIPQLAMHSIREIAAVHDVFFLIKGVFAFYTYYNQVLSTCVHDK
The assay is described as follows: Counterscreen for inhibitors of M1 and M17 aminopeptidases: QFRET-based biochemical high throughput dose response assay for inhibitors of the Plasmodium falciparum M18 Aspartyl Aminopeptidase (PFM18AAP). [Related PubChem assays: 1619 (Screening assay (M17LAP inhibitors).), 1445 (Screening assay (M1AAP inhibitors).)].

The target of a further assay is T2, Leucine aminopeptidase (Plasmodium falciparum 3D7, UniProt Q8IL11).
T2 sequence (Q8IL11 whole entry): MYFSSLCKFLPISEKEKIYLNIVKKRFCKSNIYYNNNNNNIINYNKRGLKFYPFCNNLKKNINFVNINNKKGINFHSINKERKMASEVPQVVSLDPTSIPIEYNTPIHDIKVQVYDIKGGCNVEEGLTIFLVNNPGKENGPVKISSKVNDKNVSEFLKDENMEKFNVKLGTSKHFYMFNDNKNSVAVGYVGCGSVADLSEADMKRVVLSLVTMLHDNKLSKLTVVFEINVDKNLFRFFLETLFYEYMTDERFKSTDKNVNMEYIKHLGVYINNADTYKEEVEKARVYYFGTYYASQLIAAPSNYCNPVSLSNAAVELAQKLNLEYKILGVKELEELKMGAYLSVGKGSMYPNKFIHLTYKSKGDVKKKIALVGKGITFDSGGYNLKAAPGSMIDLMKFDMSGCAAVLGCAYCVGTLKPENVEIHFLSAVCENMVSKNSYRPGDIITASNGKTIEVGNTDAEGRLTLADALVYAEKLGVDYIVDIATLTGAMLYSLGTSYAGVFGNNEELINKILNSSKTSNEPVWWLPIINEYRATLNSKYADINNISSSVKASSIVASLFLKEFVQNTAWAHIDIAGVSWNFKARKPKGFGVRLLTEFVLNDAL
The assay is described as follows: P. falciparum M17LAP inhibitors, primary screen, biochemical, fluorogenic H-Leu-NHMec substrate, 1536-well (AID 1619). In kind it is functional.

In assay [1] the target is Peroxisome proliferator-activated receptor gamma/Nuclear receptor corepressor 2 (Homo sapiens, UniProt P37231+Q9Y618). The assay is described as follows: Counterscreen for NR2E3 inverse agonists: TR-FRET-based biochemical high throughput dose response assay to identify inverse agonists of the interaction between peroxisome proliferator-activated receptor gamma (PPARg) and nuclear receptor co-repressor 2 (NCOR2). In kind it is functional.

Assay [2] addresses Photoreceptor-specific nuclear receptor (Homo sapiens, UniProt Q9Y5X4). The assay is described as follows: NR2E3 inverse agonists, dose response, biochemical, TR-FRET (AID 463256). It counts as functional.
In assay [3] the target is ADP-ribosylation factor GTPase-activating protein 1 (Rattus norvegicus, UniProt Q62848). The assay is described as follows: Fluorescence polarization-based biochemical high throughput dose response screening assay to identify inhibitors of ADP-ribosylation factor GTPase activating protein 1 (ARFGAP1). In kind it is functional.
For another assay, the target named is T3, Estrogen receptor (Homo sapiens, UniProt P03372).
T3 sequence (P03372 whole entry): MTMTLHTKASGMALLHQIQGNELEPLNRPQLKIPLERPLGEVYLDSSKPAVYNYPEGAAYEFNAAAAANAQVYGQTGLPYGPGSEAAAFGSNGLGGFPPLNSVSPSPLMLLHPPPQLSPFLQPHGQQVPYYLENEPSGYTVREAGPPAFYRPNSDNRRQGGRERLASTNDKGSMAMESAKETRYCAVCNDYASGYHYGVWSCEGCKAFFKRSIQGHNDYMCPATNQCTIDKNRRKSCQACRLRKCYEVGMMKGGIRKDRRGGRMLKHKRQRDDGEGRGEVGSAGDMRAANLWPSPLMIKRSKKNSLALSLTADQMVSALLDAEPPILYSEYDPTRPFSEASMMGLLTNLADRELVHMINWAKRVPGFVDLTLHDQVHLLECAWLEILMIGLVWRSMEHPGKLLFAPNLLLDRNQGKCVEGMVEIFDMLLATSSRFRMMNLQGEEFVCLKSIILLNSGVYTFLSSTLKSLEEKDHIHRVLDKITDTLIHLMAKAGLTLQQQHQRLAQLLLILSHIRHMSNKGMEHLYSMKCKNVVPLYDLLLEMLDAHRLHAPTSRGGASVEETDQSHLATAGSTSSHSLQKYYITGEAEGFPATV
The assay is described as follows: potentiators of ERα–SRC-1 coactivator binding, dose response, biochemical, TR-FRET, ERα LBD (AID 737). (Time-resolved FRET reads energy transfer from a long-lived donor to a nearby acceptor.)

The structures appear in SMILES notation. Activity calls are given as the source filed them.

Chain of Peroxisome proliferator-activated receptor gamma/Nuclear receptor corepressor 2 (P37231 whole entry): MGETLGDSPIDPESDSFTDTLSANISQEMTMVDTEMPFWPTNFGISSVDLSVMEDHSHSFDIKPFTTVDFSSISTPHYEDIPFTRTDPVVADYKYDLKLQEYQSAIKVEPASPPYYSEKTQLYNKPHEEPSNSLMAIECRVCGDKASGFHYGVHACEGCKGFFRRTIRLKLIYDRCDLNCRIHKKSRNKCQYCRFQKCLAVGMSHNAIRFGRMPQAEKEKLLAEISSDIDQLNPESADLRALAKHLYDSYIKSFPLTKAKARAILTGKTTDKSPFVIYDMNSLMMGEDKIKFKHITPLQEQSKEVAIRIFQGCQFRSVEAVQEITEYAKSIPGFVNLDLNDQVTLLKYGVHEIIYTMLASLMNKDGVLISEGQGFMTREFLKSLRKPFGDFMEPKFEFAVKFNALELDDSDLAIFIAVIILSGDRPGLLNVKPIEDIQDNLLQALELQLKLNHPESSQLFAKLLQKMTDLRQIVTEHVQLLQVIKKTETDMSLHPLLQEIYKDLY
Chain of Peroxisome proliferator-activated receptor gamma/Nuclear receptor corepressor 2 (Q9Y618 whole entry): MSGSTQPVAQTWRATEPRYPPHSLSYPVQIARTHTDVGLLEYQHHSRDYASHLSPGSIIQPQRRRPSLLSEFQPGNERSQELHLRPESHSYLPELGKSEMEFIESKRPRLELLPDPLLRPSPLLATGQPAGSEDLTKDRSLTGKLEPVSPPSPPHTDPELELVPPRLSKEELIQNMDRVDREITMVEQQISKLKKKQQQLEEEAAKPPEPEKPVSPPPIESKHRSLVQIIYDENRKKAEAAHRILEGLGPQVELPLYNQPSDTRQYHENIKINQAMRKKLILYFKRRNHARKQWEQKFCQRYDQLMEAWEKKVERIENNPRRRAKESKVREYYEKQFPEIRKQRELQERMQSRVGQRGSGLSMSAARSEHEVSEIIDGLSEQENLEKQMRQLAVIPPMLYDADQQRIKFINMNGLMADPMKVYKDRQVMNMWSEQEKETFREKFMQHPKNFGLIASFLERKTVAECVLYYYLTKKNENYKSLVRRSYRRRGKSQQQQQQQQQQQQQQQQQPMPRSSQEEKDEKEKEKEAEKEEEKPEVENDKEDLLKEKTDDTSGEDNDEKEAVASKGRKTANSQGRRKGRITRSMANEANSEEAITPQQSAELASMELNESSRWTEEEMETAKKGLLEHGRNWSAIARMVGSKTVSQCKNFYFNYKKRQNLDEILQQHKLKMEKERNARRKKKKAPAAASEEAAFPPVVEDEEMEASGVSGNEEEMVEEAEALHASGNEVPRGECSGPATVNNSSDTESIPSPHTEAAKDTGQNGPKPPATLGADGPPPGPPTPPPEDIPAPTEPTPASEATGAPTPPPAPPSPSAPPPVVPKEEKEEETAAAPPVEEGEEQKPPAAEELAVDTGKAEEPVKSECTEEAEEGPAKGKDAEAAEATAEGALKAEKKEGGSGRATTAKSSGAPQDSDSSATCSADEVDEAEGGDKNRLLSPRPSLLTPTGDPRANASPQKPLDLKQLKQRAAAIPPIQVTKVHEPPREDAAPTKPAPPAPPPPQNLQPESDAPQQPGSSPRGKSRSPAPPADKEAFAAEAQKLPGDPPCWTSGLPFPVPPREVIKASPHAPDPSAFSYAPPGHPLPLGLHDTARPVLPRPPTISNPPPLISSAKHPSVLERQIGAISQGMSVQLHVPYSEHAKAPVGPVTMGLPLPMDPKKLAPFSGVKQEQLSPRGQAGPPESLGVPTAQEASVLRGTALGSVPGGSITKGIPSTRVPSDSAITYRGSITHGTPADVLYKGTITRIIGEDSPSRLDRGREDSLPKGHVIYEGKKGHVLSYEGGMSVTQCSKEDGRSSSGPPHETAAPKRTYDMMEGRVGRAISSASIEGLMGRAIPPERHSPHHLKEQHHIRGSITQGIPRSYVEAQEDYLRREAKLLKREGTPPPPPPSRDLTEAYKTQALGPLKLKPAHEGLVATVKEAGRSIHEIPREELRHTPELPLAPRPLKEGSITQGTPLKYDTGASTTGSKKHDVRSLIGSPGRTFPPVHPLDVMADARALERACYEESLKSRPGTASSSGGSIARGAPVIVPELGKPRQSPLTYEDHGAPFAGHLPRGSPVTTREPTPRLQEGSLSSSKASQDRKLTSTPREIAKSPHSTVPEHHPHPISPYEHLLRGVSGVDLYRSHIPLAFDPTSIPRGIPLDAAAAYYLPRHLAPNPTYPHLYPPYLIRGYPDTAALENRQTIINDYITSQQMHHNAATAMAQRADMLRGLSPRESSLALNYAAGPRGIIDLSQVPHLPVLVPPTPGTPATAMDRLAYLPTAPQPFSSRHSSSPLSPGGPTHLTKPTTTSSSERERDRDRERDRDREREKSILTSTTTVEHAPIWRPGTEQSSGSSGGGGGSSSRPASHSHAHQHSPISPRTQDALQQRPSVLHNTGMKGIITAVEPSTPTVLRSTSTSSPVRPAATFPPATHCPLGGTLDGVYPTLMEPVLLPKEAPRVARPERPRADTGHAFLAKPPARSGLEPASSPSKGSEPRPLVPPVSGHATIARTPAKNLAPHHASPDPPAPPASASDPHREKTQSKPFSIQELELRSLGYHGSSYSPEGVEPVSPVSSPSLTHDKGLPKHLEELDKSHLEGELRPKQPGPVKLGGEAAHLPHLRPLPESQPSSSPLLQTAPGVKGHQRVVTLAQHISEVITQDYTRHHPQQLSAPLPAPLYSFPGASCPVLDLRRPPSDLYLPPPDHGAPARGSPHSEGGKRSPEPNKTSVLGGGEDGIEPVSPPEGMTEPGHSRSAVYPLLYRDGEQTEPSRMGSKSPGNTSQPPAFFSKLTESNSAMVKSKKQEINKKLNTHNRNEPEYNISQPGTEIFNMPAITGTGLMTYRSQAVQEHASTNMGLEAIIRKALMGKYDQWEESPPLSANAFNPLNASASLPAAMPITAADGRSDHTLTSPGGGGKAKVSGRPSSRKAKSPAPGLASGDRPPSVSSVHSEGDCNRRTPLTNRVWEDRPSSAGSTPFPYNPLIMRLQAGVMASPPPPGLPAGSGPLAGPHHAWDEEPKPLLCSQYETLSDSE
Chain of Photoreceptor-specific nuclear receptor (Q9Y5X4 whole entry): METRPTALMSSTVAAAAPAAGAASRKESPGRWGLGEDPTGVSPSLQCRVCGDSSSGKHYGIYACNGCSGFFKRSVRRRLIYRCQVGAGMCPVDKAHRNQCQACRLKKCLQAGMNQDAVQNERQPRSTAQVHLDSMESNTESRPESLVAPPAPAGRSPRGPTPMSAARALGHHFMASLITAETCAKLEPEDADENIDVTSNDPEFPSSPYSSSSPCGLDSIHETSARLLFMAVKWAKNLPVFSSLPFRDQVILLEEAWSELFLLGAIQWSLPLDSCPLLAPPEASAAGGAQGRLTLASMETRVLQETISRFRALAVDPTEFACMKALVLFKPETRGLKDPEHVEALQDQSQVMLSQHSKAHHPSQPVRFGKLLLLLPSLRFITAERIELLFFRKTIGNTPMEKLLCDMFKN
Chain of Procathepsin L (P07711 whole entry): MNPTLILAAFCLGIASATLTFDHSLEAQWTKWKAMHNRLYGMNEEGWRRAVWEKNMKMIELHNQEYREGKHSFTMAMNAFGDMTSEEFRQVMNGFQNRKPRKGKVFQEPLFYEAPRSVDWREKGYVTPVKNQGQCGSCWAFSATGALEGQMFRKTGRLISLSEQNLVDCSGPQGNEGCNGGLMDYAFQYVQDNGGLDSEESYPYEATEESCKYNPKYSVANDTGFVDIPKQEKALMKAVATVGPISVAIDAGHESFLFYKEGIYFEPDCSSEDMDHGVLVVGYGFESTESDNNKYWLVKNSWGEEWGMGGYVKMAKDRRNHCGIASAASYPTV
Chain of ADP-ribosylation factor GTPase-activating protein 1 (Q62848 whole entry): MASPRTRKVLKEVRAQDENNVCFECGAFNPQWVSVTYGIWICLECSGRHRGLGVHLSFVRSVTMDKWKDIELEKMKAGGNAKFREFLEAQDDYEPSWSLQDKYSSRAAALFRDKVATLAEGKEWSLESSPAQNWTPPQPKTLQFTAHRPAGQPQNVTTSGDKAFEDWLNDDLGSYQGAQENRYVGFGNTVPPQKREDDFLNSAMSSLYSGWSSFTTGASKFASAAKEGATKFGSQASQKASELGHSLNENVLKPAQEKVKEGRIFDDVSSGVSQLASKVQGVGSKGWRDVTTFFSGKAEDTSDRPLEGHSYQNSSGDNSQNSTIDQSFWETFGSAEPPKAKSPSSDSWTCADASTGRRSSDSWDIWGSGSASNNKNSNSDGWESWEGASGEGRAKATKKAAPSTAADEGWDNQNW

Turning to `Cc1ccc(NC(=O)CSc2nnc(C)c(=O)[nH]2)cc1C`, the IC50 (in general, the concentration at which inhibition is half-maximal) against Procathepsin L was > 59.6 µM (not active); against Aspartyl aminopeptidase it was > 73.5 µM (not active); at Leucine aminopeptidase, 3.51 µM (active).
With `Cc1c(C(=O)Nc2ccc(-n3cnnn3)cc2)oc2ccccc12`, the IC50 in assay [1] was 7.48 µM (active); in assay [2] it was 8.46 µM (active); in assay [3], 78.5 µM (inactive).
For the compound `Cc1cc(-c2nnc3sc(-c4ccc(Cl)cc4Cl)nn23)n[nH]1`, at Estrogen receptor, the EC50 – broadly, the concentration needed to bring the measured effect to its halfway point – is 15.4 µM (active).

The values are drawn from ChEMBL document CHEMBL1201862, “PubChem BioAssay data set” (2004).
